Test results reported in US20220338477A1, “MYCOBACTERIUM BACTERICIDE” (SANKEI CO., LTD., priority 2019, published 2022).

Experiments:
[1] = system: M. intracellulare; experiment: Test for studying disinfecting effect of chlorous acid aqueous solution and sodium hypochlorite on M. intracellulare; format: cell-based, Mycobacterium intracellulare; conditions: for free chlorine concentration (as Cl) at which a disinfecting effect (reducing the bacteria count 4 log or greater) is exhibited: contact time 1 min
Description: (§1) As a measuring method of free chlorine (as Cl), a buffer and a DPD indicator are added to a sample and a wavelength of 510 nm is measured with an absorption spectrophotometer, and for measurement of free chlorine (as Cl) in the presence of an organic matter, measurement is taken at a wavelength of 655 nm using a TMB reagent to find the concentration from the measurement values. Further, a method of conducting a test for studying the disinfecting effect prepares free chlorine (as Cl) of a test agent by a DPD method, contacts each agent with an organic matter-containing bacterial solution, neutralizes the solution with sodium thiosulfate after a certain period of time has passed, and checks the viable bacteria count of the neutral solution.
For the “chlorous acid aqueous solution formulation manufactured with chlorous acid aqueous solution” prepared based on the preparation method described above, the concentration of “chlorous acid aqueous solution” was measured based on the “Quantification method of chlorous acid aqueous solution” described above, and buffer prepared to achieve the free chlorine concentration described in each Example (phosphate buffer comprising dipotassium hydrogen phosphate and potassium dihydrogen phosphate) was used to prepare the chlorous acid aqueous solution of each Example.
The disinfecting effects of chlorous acid aqueous solutions and sodium hypochlorite on M. intracellulare were studied in the absence of an organic matter and in the presence of an organic matter, i.e., 0.5% bovine serum albumin (hereinafter, BSA) (FIG. 1). If an effect of reducing the bacteria count is 4 log or greater, the agent is considered as having a disinfecting effect.

[2] = system: chromosomal DNA of M. intracellulare; experiment: Pulsed-field gel electrophoresis of chromosomal DNA after disinfection of M. intracellulare; format: cell-based, Mycobacterium intracellulare; conditions: compared with water
Source text: In order to study the disinfection mechanism of chlorous acid aqueous solutions, with the understanding that a chlorous acid aqueous solution is unlikely to disinfect by acting on the bacterial surface in view of the results of SEM, chromosomal DNA was extracted from bacteria after disinfection, and the state of the chromosomal DNA was examined through pulsed-field gel electrophoresis in order to study the effect of a chlorous acid aqueous solution on chromosomal DNA of bacteria.

[3] = system: other mycobacteria (JCM135429, JCM135430, JCM135431, JCM135432, JCM6387, JCM6390, JCM13569); experiment: Disinfecting effect on other mycobacteria; format: cell-based
Description: as §1
Additional studies were conducted to find whether a disinfecting effect is observed on other mycobacteria. In the absence of organic matters, an effect of chlorous acid aqueous solutions was also observed on other mycobacteria at free chlorine of 50 ppm or greater, whereas an effect was not observed from sodium hypochlorite at 200 ppm (FIG. 7). The same results as the results for M. intracellulare were obtained.

## OCl [sodium hypochlorite]
[1]; absence and presence of organic matter (0.5% BSA)
  disinfecting effect (FIG. 1): not found
[1]; absence of an organic matter
  free chlorine concentration (as Cl) at which a disinfecting effect (reducing the bacteria count 4 log or greater) is exhibited: > 200 ppm
[1]; presence of an organic matter (0.5% BSA)
  free chlorine concentration (as Cl) at which a disinfecting effect (reducing the bacteria count 4 log or greater) is exhibited: > 1000 ppm
[2]
  state of chromosomal DNA band in pulsed-field gel electrophoresis: a band is formed at the same position as water
[3]; absence of organic matters (FIG. 7)
  free chlorine at which a disinfecting effect was observed: > 200 ppm
[3]; presence of 0.5% BSA (FIG. 8)
  free chlorine at which a disinfecting effect was observed: > 1000 ppm
